Where “and” joins values, the source holds several entries; their conditions need not be identical. Equal values may be shown once.
Legend:
[1] = tested on: Hepatocytes; experiment: Hepatocytes predicted clearance, human
[2] = biological target: Human TRPV4 (Homo sapiens, UniProt Q9HBA0); experiment: TRPV4 calcium flux assay (FLIPR, antagonist mode); type: cell-based; set-up: HiBiT (inferred from the expression read-out); host or cells: HEK293T; settings: HEK293T cells transfected with hTRPV4; antagonist mode vs EC80 of TRPV4 agonist; average of at least 3 separate experiments; read-out: Human TRPV4 Ca2+ Assay IC50
Chain of Human TRPV4 (Q9HBA0 whole entry): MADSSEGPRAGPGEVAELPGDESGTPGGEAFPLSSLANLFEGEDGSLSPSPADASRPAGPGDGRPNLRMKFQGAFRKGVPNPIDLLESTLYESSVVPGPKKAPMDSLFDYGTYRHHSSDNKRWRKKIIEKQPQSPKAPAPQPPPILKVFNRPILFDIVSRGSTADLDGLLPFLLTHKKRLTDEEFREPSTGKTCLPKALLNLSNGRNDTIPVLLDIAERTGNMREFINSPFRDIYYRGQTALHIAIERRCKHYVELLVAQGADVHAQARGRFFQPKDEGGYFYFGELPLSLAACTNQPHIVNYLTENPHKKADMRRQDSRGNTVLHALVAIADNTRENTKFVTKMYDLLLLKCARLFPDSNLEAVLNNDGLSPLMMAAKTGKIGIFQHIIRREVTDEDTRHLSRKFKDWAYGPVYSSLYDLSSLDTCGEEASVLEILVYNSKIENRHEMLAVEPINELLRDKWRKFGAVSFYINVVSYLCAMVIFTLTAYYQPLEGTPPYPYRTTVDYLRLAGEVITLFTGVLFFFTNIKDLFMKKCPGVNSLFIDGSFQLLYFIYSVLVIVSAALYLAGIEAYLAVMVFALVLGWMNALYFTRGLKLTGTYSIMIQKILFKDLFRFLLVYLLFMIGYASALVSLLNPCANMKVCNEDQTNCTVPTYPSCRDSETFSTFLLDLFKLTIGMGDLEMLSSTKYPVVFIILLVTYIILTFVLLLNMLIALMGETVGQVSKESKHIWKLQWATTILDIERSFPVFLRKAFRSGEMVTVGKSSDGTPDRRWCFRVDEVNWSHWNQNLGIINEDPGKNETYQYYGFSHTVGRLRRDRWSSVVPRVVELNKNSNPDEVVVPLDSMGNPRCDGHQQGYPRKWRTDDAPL
Description: Example 23. TRPV4 Calcium Assay Methods
Human embryonic kidney 293T (HEK293T/293T) cells are cultured in complete media (Dulbecco's Modified Eagle Medium (DMEM), containing 10% fetal bovine serum (FBS) and 1× penicillin-streptomycin) in a T-75 tissue culture flask. At 90% confluency, cells are detached using TrypLE™ Express cell dissociation buffer. TrypLE™ Express buffer is neutralized by adding culture media in excess. Cells are gently triturated and counted using trypan blue in a Countess 3 automated cell counter. Cells are transferred to a 50 mL conical tube and spun down at 1000 rotations per minute (RPM) for five minutes in a benchtop centrifuge. Media containing detaching enzyme is aspirated off the pellet, followed by resuspension to the desired concentration of 2×10^6 cells per mL in complete DMEM.
Transfection preparations were scaled using a combination of 6 μg of TRPV4 wild-type or mutant plasmid DNA, 36 μL of Fugene6 transfection reagent, and 1000 μL of OptiMEM media for every 2×10^6 cells needed. The transfection mix is left to incubate for 20 minutes at room temperature. Total seeding mixture (1000 μL 2×10^6 cells, 1000 μL transfection mix previously described, and 1000 μL complete DMEM) for one transfection is combined into a 15 mL conical tube. The cells and transfection plasmid are mixed thoroughly and dispensed into a reservoir. This is plated at 25 μL per well in a black 384, black-well, clear-bottom, tissue-culture treated plate. This yields approximately 16,000 cells per well. Plasmid DNA constructs were designed by Actio Biosciences in conjunction with Genscript, and generated by Genscript, for all hTRPV4 wild-type and hTRPV4 P/LP (ClinVar) mutations (G78W, P82S, T891, P97R, R186Q, R232C, R232P, R237G, R237Q, R237 L, R269C, R269H, R269S, G270V, R271P, F273 L, K276E, E278K, G280S, Y281S, R315G, R315W, R316C, R316H, R316 L, R316S, I331F, D333G, S403T, K403T, K407E, S542P, S542Y, L543R, Y591N, R594C, R594H, R594S, G600E, Y602C, R616Q, F617 L, L618P, V6201, A716S, A716T, L735R, T740I, R775K, W785R, E797D, E797K, P799A, P799R, P799S, P799 L, G800D, K801E, P827H, F471del, N797del). The remaining cells are plated in the same manner, in a 384, white-well, clear-bottom, tissue-culture treated plate for expression and relative cell number determination. Plates are placed in the incubator at 37° C. overnight.
Compounds were brought to 10 mM in DMSO. DMSO concentration was kept constant throughout the dilution of any compound. DMSO negative control and concentration-response curves were nanoliter-spotted via PICO8 automated dispenser at 5× test concentration into a 384w clear polypropylene plate containing 1×HBSS+20 mM HEPES buffer. A predetermined concentration equivalent to the EC80 of TRPV4 agonist on hTRPV4 was prepared at 6× in 1×HBSS+20 mM HEPES and loaded into a separate 384-well v-bottom polypropylene plate.
Approximately 18 hours post-transfection, the cell plates were removed from the incubator and equal volume (25 uL) Calcium 6 dye was gently added. Calcium 6 dye containing probenecid (final 5 mM) was prepared per manufacturer's instructions. Cell plate was returned to the incubator for 1 hour, at 37° C.
FLIPR Penta was programmed to add compound using the following settings • Pipettor Head=384 • Read Mode 1 Excitation Wavelength=470_495 • Read Mode 1 Emission Wavelength=515_575 • Read Mode 1 Exposure=0.1000 • Read Mode 1 Gain=6.50 • Read Mode 1 Excitation Intensity=20 • Volume of addition=12.5 μL • Height=40 μL • Speed=15 μL/second
Raw data was exported and analyzed for maximum signal (RFU) after agonist addition—the average baseline (RFU) in the first 15 seconds per well. Data was plotted in GraphPad Prism to determine EC50 or IC50 of the molecules.

[3] = tested on: Hepatocytes; experiment: Hepatocytes predicted clearance, mouse
[4] = tested on: Hepatocytes; experiment: Hepatocytes predicted clearance, dog
[5] = tested on: Hepatocytes; experiment: Hepatocytes predicted clearance, rat
[6] = tested on: Hepatocytes; experiment: Hepatocytes predicted clearance, cyno
[7] = biological target: recombinant human CYP3A4 enzyme (Homo sapiens, UniProt P08684); experiment: CYP3A4 incubation assay; type: in vitro ADME
Chain of recombinant human CYP3A4 enzyme (P08684 whole entry): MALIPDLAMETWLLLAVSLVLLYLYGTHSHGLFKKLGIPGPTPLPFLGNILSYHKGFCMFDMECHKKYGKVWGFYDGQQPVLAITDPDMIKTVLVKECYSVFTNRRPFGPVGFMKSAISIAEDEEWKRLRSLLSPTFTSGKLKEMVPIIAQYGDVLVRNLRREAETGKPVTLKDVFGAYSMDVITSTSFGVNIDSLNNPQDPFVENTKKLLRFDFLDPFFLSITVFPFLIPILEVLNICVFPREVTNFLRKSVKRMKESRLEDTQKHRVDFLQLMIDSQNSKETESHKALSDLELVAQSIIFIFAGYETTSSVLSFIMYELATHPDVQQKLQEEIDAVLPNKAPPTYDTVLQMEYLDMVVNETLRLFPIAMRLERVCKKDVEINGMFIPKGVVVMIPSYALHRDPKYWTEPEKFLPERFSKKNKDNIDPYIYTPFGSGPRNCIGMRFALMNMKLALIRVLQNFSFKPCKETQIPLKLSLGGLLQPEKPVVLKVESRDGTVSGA
Description: Example 24. CYP3A4 Incubation Assay
Compounds (final concentration […]) were incubated in 100 mM phosphate buffer containing 100 pmol/mL recombinant human CYP3A4 enzyme for 0, 5, 10, 15 and 25 minutes.
Testosterone was used as positive control. Reaction was initiated by the addition of NADPH (final concentration […]) and carried out at 37° C. The reaction was stopped by the addition of 4 volumes of cold acetonitrile (with 100 nM alprazolam, 200 nM labetalol, 200 nM imipramine and 2 μM ketoprofen as internal standards). Samples were centrifuged at 3,220 g for 40 minutes to precipitate protein. 70 μL supernatant was transferred to the analysis plate containing 110 μL of acetonitrile for LC-MS/MS analysis.
The following table indicates the percentage remaining for the indicated examples after incubation with recombinant Human CYP3A4 after 25 minutes under the same conditions as described for Example […].

[8] = 100 pmol/mL recombinant human CYP3A4, 37° C., 0-25 min

## CC(C)(O)c1cnc(N2C[C@@]3(CCC(C)(C)[C@H](Cn4cnc5ccc(C#N)cc54)C3)OC2=O)cn1 (single isomer, unassigned) [Example 1]
[1]
  Hepatocytes predicted clearance in human: 4.5 mL/min/kg
[2]
  IC50: 606 nM
[3]
  Hepatocytes predicted clearance in mouse: 118 mL/min/kg
[4]
  Hepatocytes predicted clearance in dog: 11.5 mL/min/kg
[5]
  Hepatocytes predicted clearance in rat: 10.8 mL/min/kg
[6]
  Hepatocytes predicted clearance in cyno: 4 mL/min/kg

## CC(C)(O)c1cnc(N2C[C@@]3(CCC4(CC4)[C@@H](Cn4cnc5ccc(C#N)cc54)C3)OC2=O)cn1 (single isomer, unassigned) [Example 3]
[1]
  Hepatocytes predicted clearance in human: 3.17 mL/min/kg
[2]
  IC50: 852 nM
[3]
  Hepatocytes predicted clearance in mouse: 131 mL/min/kg
[4]
  Hepatocytes predicted clearance in dog: 17.3 mL/min/kg
[5]
  Hepatocytes predicted clearance in rat: 79.5 mL/min/kg
[6]
  Hepatocytes predicted clearance in cyno: 182 mL/min/kg

## CC(C)(O)c1cnc(N2C[C@@]3(CCC4(CC4)[C@](C)(Cn4cnc5ccc(C#N)cc54)C3)OC2=O)cn1 (single isomer, unassigned) [Example 6]
[7]; human, recombinant enzyme
  CYP3A4 Clint: <0.07, <0.07 μL/min/pmol CYP450
[1]
  Hepatocytes predicted clearance in human: 6.5 mL/min/kg
[2]
  IC50: 8 nM
[3]
  Hepatocytes predicted clearance in mouse: 24.5 mL/min/kg
[4]
  Hepatocytes predicted clearance in dog: 3.17 mL/min/kg
[5]
  Hepatocytes predicted clearance in rat: 8.3 mL/min/kg
[6]
  Hepatocytes predicted clearance in cyno: 120 mL/min/kg

## CC(C)(O)c1cnc(N2C[C@@]3(CCC[C@](CF)(Cn4cnc5ccc(C#N)cc54)C3)OC2=O)cn1 (single isomer, unassigned) [Example 7]
[7]; [8]
  CYP3A4 Clint: <0.07, <0.07 μL/min/pmol CYP450
[1]
  Hepatocytes predicted clearance in human: 1 mL/min/kg
[2]
  IC50: 11 nM
[3]
  Hepatocytes predicted clearance in mouse: 43.2 mL/min/kg
[4]
  Hepatocytes predicted clearance in dog: < 0.17 mL/min/kg
[5]
  Hepatocytes predicted clearance in rat: 6.7 mL/min/kg
[6]
  Hepatocytes predicted clearance in cyno: 4.5 mL/min/kg

## CO[C@@H]1CC[C@@]2(CN(c3cnc(C(C)(C)O)cn3)C(=O)O2)C[C@@]1(C)Cn1cnc2ccc(C#N)cc21 (single isomer, unassigned) [Example 10]
[7]; [8]
  CYP3A4 Clint: 0.22 μL/min/pmol CYP450 and 0.21 μL/min/pmol CYP450
[2]
  IC50: 158 nM

## CC(C)(C)CN1C[C@@]2(CCC(F)(F)[C@H](Cn3cnc4ccc(C#N)cc43)C2)OC1=O (single isomer, unassigned) [Example 11]
[1]
  Hepatocytes predicted clearance in human: 17.3 mL/min/kg
[2]
  IC50: 39 nM
[3]
  Hepatocytes predicted clearance in mouse: 515.2 mL/min/kg
[4]
  Hepatocytes predicted clearance in dog: 63.3 mL/min/kg
[5]
  Hepatocytes predicted clearance in rat: 251.2 mL/min/kg
[6]
  Hepatocytes predicted clearance in cyno: 90.5 mL/min/kg

## N#Cc1ccc2ncn(C[C@@H]3C[C@@]4(CCC3(F)F)CN(c3ccccc3Cl)C(=O)O4)c2c1 (single isomer, unassigned) [Example 12]
[1]
  Hepatocytes predicted clearance in human: 7.5 mL/min/kg
[2]
  IC50: 103 nM
[3]
  Hepatocytes predicted clearance in mouse: 449.3 mL/min/kg
[4]
  Hepatocytes predicted clearance in dog: 284.5 mL/min/kg
[5]
  Hepatocytes predicted clearance in rat: 82.5 mL/min/kg
[6]
  Hepatocytes predicted clearance in cyno: 101 mL/min/kg

## CCOc1ccccc1N1C[C@@]2(CCC(F)(F)[C@H](Cn3cnc4ccc(C#N)cc43)C2)OC1=O (single isomer, unassigned) [Example 13]
[2]
  IC50: 496 nM

## CC(C)(O)c1cnc(N2C[C@@]3(CC[C@@H](F)[C@](C)(Cn4cnc5cc(F)c(C#N)cc54)C3)OC2=O)cn1 (single isomer, unassigned) [Example 18]
[2]
  IC50: 9 nM

## CC(C)(O)c1cnc(N2C[C@@]3(CC[C@@H](F)[C@](C)(Cn4cnc5c(Cl)cc(C#N)cc54)C3)OC2=O)cn1 (single isomer, unassigned) [Example 19]
[2]
  IC50: 9 nM

## CO[C@]1(Cn2cnc3ccc(C#N)cc32)CCC[C@@]2(CN(c3cnc(C(C)(C)O)cn3)C(=O)O2)C1 [Example 9, 1-(((5S,7R)-3-(5-(2-Hydroxypropan-2-yl)pyrazin-2-yl)-7-methoxy-2-oxo-1-oxa-3-azaspiro[4.5]decan-7-yl)methyl)-1H-benzo[d]imidazole-6-carbonitrile]
[7]; [8]
  CYP3A4 Clint: 0.42 μL/min/pmol CYP450 and 0.33 μL/min/pmol CYP450
[2]
  IC50: 213 nM

Reference: patent US12391683B2, “Therapeutic compounds and methods” (Actio Biosciences, Inc., priority 2022, dated 2025)
